Results as given in US6355799B1, “Substituted benzene compounds, process for their preparation, and herbicidal and defoliant compositions containing them” (ISK Americas Incorporated, priority 1997, dated 2002).

Experiments:
Assay type in all cases: in vivo
[1] = test system: redroot pigweed (Amaranthus retroflexus, AMARE); test: Pre-emerge test, greenhouse herbicide activity screening; details: phytotoxicity rating 0-100, 14 days after application
Outline: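 Compounds in acetone were track-sprayed at 187 l/ha, 15–1000 g ai/ha, onto sandy loam pots. Pre-emerge seeds were sown one day before spraying, with surface watering afterwards. Post-emerge plants were at the 2–3 leaf stage and sprayed with 0.25% v/v non-ionic surfactant. Injury was rated 0–100 at 14 days.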

[2] = test system: upland rice (Oryza sp., var. Tebonnet, RICE); test: Post-emerge test, crop safety; details: post-emerge, 14 days after application, rating scale 0-100
Outline: (§1)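 Rating: 0–100 visual injury, 14 DAA. Application: acetone, 187 l/ha, 15–1000 g ai/ha, flat-fan track sprayer with nozzle 40–45 cm above soil or canopy. Post-emerge runs used 0.25% v/v surfactant on 2–3 leaf plants.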

[3] = test system: field corn (Zea mays L., var. Dekalb 535, CORN); test: Post-emerge test, crop safety; details: post-emerge, 14 days after application, rating scale 0-100
Outline: as §1

[4] = test system: upland rice (Oryza sp., var. Tebonnet, RICE); test: Pre-emerge test, crop safety; details: crop damage rating 0-100, 14 days after application
Outline: (§2)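 Plants grown in 10 cm pots of sandy loam mix received acetone-dissolved compounds through a moving flat-fan nozzle. Doses ranged from 15 to 1000 g ai/ha. Pre-emerge pots were seeded one day earlier, post-emerge pots 8–21 days earlier. Fourteen days on, each pot was graded 0–100 for damage.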

[5] = test system: field corn (Zea mays L., var. Dekalb 535, CORN); test: Pre-emerge test, crop safety; details: crop damage rating 0-100, 14 days after application
Outline: as §2

[6] = test system: green foxtail (Setaria viridis, SETVI); test: Pre-emerge test, greenhouse herbicide activity screening; details: phytotoxicity rating 0-100, 14 days after application
Outline: (§3)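 Compounds in acetone were track-sprayed at 15–1000 g ai/ha: pre-emergence onto soil sown the previous day, then top-watered to incorporate and later bottom-watered; post-emergence onto 2–3 leaf plants with 0.25% v/v surfactant, bottom-watered only. Ratings on a 0–100 phytotoxicity scale were taken at day 14.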

[7] = test system: johnsongrass (Sorghum halepense, SORHA); test: as above; details: phytotoxicity rating 0-100, 14 days after application
Outline: as §3

[8] = test system: large crabgrass (Digitaria sanguinalis, DIGSA); test: as above; details: phytotoxicity rating 0-100, 14 days after application
Outline: as §3

[9] = test system: velvetleaf (Abutilon theophrasti, ABUTH); test: as above; details: phytotoxicity rating 0-100, 14 days after application
Outline: as §3

[10] = test system: lambsquarters (Chenopodium album, CHEAL); test: as above; details: phytotoxicity rating 0-100, 14 days after application
Outline: as §3

[11] = test system: ivyleaf morningglory (Ipomoea hederacea, IPOHE); test: as above; details: phytotoxicity rating 0-100, 14 days after application
Outline: as §3

[12] = test system: barnyardgrass (Echinochloa crus-galli, ECHCG); test: as above; details: phytotoxicity rating 0-100, 14 days after application
Outline: as §3

[13] = test system: sicklepod (Cassia obtusifolia, CASOB); test: as above; details: phytotoxicity rating 0-100, 14 days after application
Outline: as §3

[14] = test system: green foxtail (Setaria viridis, SETVI); test: Post-emerge test, greenhouse herbicide activity screening; details: post-emerge, 14 days after application, rating scale 0-100
Outline: (§4)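 Visual ratings on a 0-100 scale (0 no damage, 100 all plants dead) were taken at 14 days after treatment. Rates of 15-1000 g ai/ha in acetone, 187 l/ha, were sprayed onto soil one day after planting (pre-emerge) or onto 2-3 leaf plants with 0.25% v/v surfactant (post-emerge).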

[15] = test system: johnsongrass (Sorghum halepense, SORHA); test: as above; details: post-emerge, 14 days after application, rating scale 0-100
Outline: as §4

[16] = test system: large crabgrass (Digitaria sanguinalis, DIGSA); test: as above; details: post-emerge, 14 days after application, rating scale 0-100
Outline: as §4

[17] = test system: redroot pigweed (Amaranthus retroflexus, AMARE); test: as above; details: post-emerge, 14 days after application
Outline: as §4

[18] = test system: velvetleaf (Abutilon theophrasti, ABUTH); test: as above; details: post-emerge, 14 days after application, rating scale 0-100
Outline: as §4

[19] = test system: lambsquarters (Chenopodium album, CHEAL); test: as above; details: post-emerge, 14 days after application, rating scale 0-100
Outline: as §4

[20] = test system: ivyleaf morningglory (Ipomoea hederacea, IPOHE); test: as above; details: post-emerge, 14 days after application, rating scale 0-100
Outline: as §4

[21] = test system: barnyardgrass (Echinochloa crus-galli, ECHCG); test: as above; details: post-emerge, 14 days after application, rating scale 0-100
Outline: as §4

[22] = test system: sicklepod (Cassia obtusifolia, CASOB); test: as above; details: post-emerge, 14 days after application, rating scale 0-100
Outline: as §4

## COc1c(Cl)cc(F)c(-n2c(=O)cc(C(F)(F)F)n(C)c2=O)c1NC(=O)C1CC1 [2-206]
[1]; 63 g ai/ha
  Pre-emerge Herbicidal Activity AMARE: 0
[1]; 250 g ai/ha
  Pre-emerge Herbicidal Activity AMARE: 80
[2]; 63 g ai/ha
  phytotoxicity rating RICE (crop damage): 0
[2]; 250 g ai/ha
  phytotoxicity rating RICE (crop damage): 70
[3]; 63 g ai/ha
  phytotoxicity rating CORN (crop damage): 0
[3]; 250 g ai/ha
  phytotoxicity rating CORN (crop damage): 0
[4]; 63 g ai/ha
  Pre-emerge Herbicidal Activity RICE: 60
[4]; 250 g ai/ha
  Pre-emerge Herbicidal Activity RICE: 80
[5]; 63 g ai/ha
  Pre-emerge Herbicidal Activity CORN: 50
[5]; 250 g ai/ha
  Pre-emerge Herbicidal Activity CORN: 100
[6]; 63 g ai/ha
  Pre-emerge Herbicidal Activity SETVI: 0
[6]; 250 g ai/ha
  Pre-emerge Herbicidal Activity SETVI: 70
[7]; 63 g ai/ha
  Pre-emerge Herbicidal Activity SORHA: 0
[7]; 250 g ai/ha
  Pre-emerge Herbicidal Activity SORHA: 40
[8]; 63 g ai/ha
  Pre-emerge Herbicidal Activity DIGSA: 0
[8]; 250 g ai/ha
  Pre-emerge Herbicidal Activity DIGSA: 80
[9]; 63 g ai/ha
  Pre-emerge Herbicidal Activity ABUTH: 70
[9]; 250 g ai/ha
  Pre-emerge Herbicidal Activity ABUTH: 100
[10]; 63 g ai/ha
  Pre-emerge Herbicidal Activity CHEAL: 50
[10]; 250 g ai/ha
  Pre-emerge Herbicidal Activity CHEAL: 100
[11]; 63 g ai/ha
  Pre-emerge Herbicidal Activity IPOHE: 50
[11]; 250 g ai/ha
  Pre-emerge Herbicidal Activity IPOHE: 90
[12]; 63 g ai/ha
  Pre-emerge Herbicidal Activity ECHCG: 0
[12]; 250 g ai/ha
  Pre-emerge Herbicidal Activity ECHCG: 90
[13]; 63 g ai/ha
  Pre-emerge Herbicidal Activity CASOB: 20
[13]; 250 g ai/ha
  Pre-emerge Herbicidal Activity CASOB: 60
[14]; 63 g ai/ha
  phytotoxicity rating SETVI: 0
[14]; 250 g ai/ha
  phytotoxicity rating SETVI: 0
[15]; 63 g ai/ha
  phytotoxicity rating SORHA: 0
[15]; 250 g ai/ha
  phytotoxicity rating SORHA: 0
[16]; 63 g ai/ha
  phytotoxicity rating DIGSA: 30
[16]; 250 g ai/ha
  phytotoxicity rating DIGSA: 20
[17]; 63 g ai/ha, rating scale 0-100 (0 no damage, 100 complete death)
  phytotoxicity rating AMARE: 20
[17]; 250 g ai/ha, rating scale 0-100
  phytotoxicity rating AMARE: 50
[18]; 63 g ai/ha
  phytotoxicity rating ABUTH: 50
[18]; 250 g ai/ha
  phytotoxicity rating ABUTH: 90
[19]; 63 g ai/ha
  phytotoxicity rating CHEAL: 50
[19]; 250 g ai/ha
  phytotoxicity rating CHEAL: 70
[20]; 63 g ai/ha
  phytotoxicity rating IPOHE: 70
[20]; 250 g ai/ha
  phytotoxicity rating IPOHE: 90
[21]; 63 g ai/ha
  phytotoxicity rating ECHCG: 0
[21]; 250 g ai/ha
  phytotoxicity rating ECHCG: 30
[22]; 63 g ai/ha
  phytotoxicity rating CASOB: 50
[22]; 250 g ai/ha
  phytotoxicity rating CASOB: 80
